Laboratory results from patent US9446127B2, “Compositions including androgen receptor degradation (ARD) enhancers and methods of prophylactic or therapeutic treatment of skin disorders and hair loss” (AndroScience Corporation, priority 2007, dated 2016).

Key:
androgen receptor (AR) [1] = biological target: T1, androgen receptor (AR) (Homo sapiens, UniProt P10275, T878A); test: Western blot analysis of AR expression in LNCaP cells; assay type: cell-based
T1 construct: endogenous in cells; host or cells: LNCaP
T1 sequence (P10275 1-920 T878A): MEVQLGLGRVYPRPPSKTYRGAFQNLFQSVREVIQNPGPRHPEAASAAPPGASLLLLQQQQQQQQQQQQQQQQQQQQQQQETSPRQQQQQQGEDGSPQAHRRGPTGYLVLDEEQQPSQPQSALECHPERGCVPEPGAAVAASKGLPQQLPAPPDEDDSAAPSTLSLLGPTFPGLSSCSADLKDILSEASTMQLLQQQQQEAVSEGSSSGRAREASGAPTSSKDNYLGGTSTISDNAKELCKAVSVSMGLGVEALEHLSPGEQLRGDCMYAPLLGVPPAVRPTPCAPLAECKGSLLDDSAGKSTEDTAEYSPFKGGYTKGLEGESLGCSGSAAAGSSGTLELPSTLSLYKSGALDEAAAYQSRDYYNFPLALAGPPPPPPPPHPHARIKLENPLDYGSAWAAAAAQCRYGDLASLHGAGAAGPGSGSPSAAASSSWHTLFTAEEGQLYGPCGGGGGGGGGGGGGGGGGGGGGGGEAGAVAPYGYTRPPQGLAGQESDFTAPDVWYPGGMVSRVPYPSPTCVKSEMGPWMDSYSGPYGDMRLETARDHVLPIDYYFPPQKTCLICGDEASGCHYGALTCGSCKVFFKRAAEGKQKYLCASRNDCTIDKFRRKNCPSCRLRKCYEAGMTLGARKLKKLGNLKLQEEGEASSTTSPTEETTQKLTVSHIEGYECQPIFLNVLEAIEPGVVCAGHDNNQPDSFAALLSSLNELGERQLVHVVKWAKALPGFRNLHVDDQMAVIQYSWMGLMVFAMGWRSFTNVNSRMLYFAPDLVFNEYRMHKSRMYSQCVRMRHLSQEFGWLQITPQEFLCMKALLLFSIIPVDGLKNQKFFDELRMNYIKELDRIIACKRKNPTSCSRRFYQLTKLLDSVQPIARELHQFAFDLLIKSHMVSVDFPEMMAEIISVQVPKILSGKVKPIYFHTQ
Description: Briefly, cells (for example, LNCap cells) are harvested either in 2× sodium dodecyl sulfate (SDS) loading buffer or in radioimmunoprecipitation assay (RIPA) lysis buffer (see “Antibodies: A Laboratory Manual”, E. Harlow and D. Lane, Cold Spring Harbor Laboratory, 1988) containing 10 micrograms/milliliter of benzamidine, 10 micrograms/milliliter of trypsin inhibitor, and 1 millimolar of phenylmethylsulfonyl fluoride (PMSF). Total protein (40 micrograms/sample, or as desired) from cell lysate is separated on a SDS-PAGE gel. After separation, proteins are transferred from the gel to a nitrocellulose membrane following standard Western blot procedures. The membrane is blocked with a suitable blocking agent (such as 10% non-fat milk in phosphate-buffered saline supplemented with 0.1% Tween-20 (PBST)) to reduce non-specific binding overnight. The membrane is incubated with a suitable primary antibody specific for human AR (for example, anti-human AR from BD-PharMingen) at 4 degrees Celsius overnight or at room temperature for 2 hours. […] The membrane is rinsed with PBST, and a suitable visualization procedure is used to detect the secondary antibody (for example, horseradish peroxidase can be detected with a colorimetric substrate or by a chemiluminescent substrate such as that provided by the enhanced chemiluminescence (ECL Plus) kit from Amersham). […] Quantification of the protein signals can be carried out by densitometry, using appropriate software (ImageJ software from the National Institutes of Health).
LNCaP cells from the above described experiment were harvested at designated times, cell lysate was prepared for Western blot analysis as described previously. A color detection method was subsequently employed to examine AR and actin protein signals in the membranes, and the resultant protein signals were quantitated by densitometry. In FIG. 4B, normalized AR signals (as relative to actin protein) are reported, which were expressed as a percentage of baseline (Day 0) value. […]
Cells were then harvested and AR protein was quantified by Western blot.

androgen receptor (AR) [2] = biological target: T1, androgen receptor (AR); test: AR degradation in LNCaP cells in the presence of cycloheximide (Western blot); assay type: cell-based; conditions: 20 micromolar, cycloheximide 15 micrograms/milliter
Description: To determine whether the observed reduction of AR protein levels was due to protein degradation rather than inhibition of AR protein synthesis, a second set of three replicate experiments was performed. In these experiments, the protein synthesis inhibitor cycloheximide (CHX) was used to prevent the cells from synthesizing new proteins. In the absence of new AR protein synthesis, any alterations in AR levels would be mainly attributable to protein degradation. LNCaP cells were cultured in the presence and absence of ASC-J9 (20 micromolar) and in the presence and absence of cycloheximide (15 micrograms/milliter). Cells were then incubated for 0, 3, 6 and 12 hours before harvesting and analysis of AR levels by Western blot.

skin wounds = test: Skin wound healing in Balb/c mice; assay type: in vivo; conditions: cream 25 uM twice per day
Description: The ability of ASC-J9 to hasten wound healing in an animal model was tested using Balb/c mice. Using a skin puncher, wounds were created near the back of the neck region on retired male breeder Balb/c mice. Mice were treated with either an ASC-J9 cream (25 uM) or a vehicle control cream twice per day topically at the wound site.

[3] = biological target: T2, mutant androgen receptor poly Q49 (GFPARQ49) (Homo sapiens, UniProt P10275, INS80QQQQQQQQQQQQQQQQQQQQQQQQQQ); test: Fluorescence microscopy of COS-1 cells transfected with GFPARQ49; assay type: cell-based; conditions: COS-1, 5 micromolar
T2 construct: GFP (green fluorescent protein); expressed in transfected cells; host or cells: COS-1 (monkey kidney)
Description: Monkey kidney COS-1 cells were plated at a density of 3×10^4 cells per 0.5-milliliter volume onto alcohol-cleaned and sterilized cover slips placed in 35-millimeter suspension culture dishes containing Dulbecco's modified Eagle's (DME) medium containing 10% FBS. The cells were transfected with plasmids containing the wild type AR (GFPAR) or poly Q49 (plasmid GFPARQ49) mutant androgen receptor and green fluorescent protein (GFP) as a reporter. For each coverslip, 12.3 microliters SuperFect was added to 3.075 micrograms plasmid in 102.5 microliters DME medium (to give a 1:4 ratio of DNA to SuperFect reagent); the mixture was vortexed briefly, and the complex allowed to form over 15 minutes. Each mixture then received 897 microliters CD/DME and was mixed gently. The resulting 1-milliliter volumes were added to the dishes containing the coverslips (final plasmid concentration was […] per dish). Cells were allowed to incubate with the transfection solution for 5 hours, then the medium was changed to fresh 1.5 milliliters CD/DME medium with either vehicle (DMSO) only added or ASC-J9 (final concentration 5 micromolar). […] The coverslips were air-dried, mounted on slides with a glycerol-based mounting agent, and stored at 4 degrees Celsius if necessary prior to observation with fluorescence microscopy. […]

T2 sequence (P10275 with tags, fused parts or gaps with the stated changes): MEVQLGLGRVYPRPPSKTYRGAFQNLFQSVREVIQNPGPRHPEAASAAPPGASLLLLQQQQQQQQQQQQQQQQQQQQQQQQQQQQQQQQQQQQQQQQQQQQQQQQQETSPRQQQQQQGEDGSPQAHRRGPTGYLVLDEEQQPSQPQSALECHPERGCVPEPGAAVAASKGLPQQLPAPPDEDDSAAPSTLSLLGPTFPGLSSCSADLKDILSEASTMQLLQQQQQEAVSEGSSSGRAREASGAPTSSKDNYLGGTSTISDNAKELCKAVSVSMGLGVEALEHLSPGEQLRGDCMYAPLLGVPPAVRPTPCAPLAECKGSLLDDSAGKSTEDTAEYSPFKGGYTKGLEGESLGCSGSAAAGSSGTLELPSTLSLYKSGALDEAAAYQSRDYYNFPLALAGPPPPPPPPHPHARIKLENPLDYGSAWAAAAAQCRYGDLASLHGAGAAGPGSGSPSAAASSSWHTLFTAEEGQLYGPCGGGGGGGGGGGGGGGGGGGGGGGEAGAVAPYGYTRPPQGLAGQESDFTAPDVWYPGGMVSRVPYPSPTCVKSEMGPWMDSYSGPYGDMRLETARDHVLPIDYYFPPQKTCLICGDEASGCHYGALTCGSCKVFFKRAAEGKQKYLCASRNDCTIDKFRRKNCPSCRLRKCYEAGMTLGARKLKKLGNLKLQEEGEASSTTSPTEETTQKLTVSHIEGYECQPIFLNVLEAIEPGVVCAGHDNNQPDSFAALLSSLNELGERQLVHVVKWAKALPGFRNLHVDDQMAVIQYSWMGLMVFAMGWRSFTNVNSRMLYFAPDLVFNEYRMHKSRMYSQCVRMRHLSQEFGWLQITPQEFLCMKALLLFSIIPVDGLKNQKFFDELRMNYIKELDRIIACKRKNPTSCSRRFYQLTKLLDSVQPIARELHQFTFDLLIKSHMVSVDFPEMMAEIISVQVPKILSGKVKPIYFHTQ

COc1ccc(C=CC(=O)C=C(O)C=Cc2ccc(OC)c(OC)c2)cc1OC [ASC-J9, 5-hydroxy-1,7-bis(3,4-dimethoxyphenyl)-1,4,6-heptatrien-3-one]
time at which AR reduction was first observed (androgen receptor (AR) [1]; 5 μM, continuous incubation): 2 days | AR remaining, normalized AR signal as percentage of baseline (Day 0) (androgen receptor (AR) [1]; 5 μM, end of 5-day incubation): ~10% | AR protein, ARD enhancer compared with conventional anti-androgens (androgen receptor (AR) [1]; 48 hours, Western blot (FIG. 7B)): decreased AR protein | time within which degradation of existing AR protein was enhanced (androgen receptor (AR) [2]): ≤ 4 h | wound size (skin wounds; day 5, vs vehicle): smaller wound size | wound healing (skin wounds; day 10): completely healed | fluorescent inclusions or aggregates of mutant poly Q49 AR [3]: substantially smaller amounts of fluorescent inclusions
